Experimental data taken from PMC6720883, “In Vitro Inhibitory Effects of APINACA on Human Major Cytochrome P450, UDP-Glucuronosyltransferase Enzymes, and Drug Transporters” (Molecules, 2019).
Like-named read-outs stand apart in the source and are kept apart here.

Key:
[1] = molecular target: T1, UGT1A9 (Homo sapiens, UniProt O60656); set-up: […]; tissue Corning Life Sciences; method as in PMID 23230132; details: human liver microsomes; read-out: Ki for inhibition of UGT1A9-mediated ethanol glucuronidation; cited from earlier work
T1 sequence (O60656 26-530): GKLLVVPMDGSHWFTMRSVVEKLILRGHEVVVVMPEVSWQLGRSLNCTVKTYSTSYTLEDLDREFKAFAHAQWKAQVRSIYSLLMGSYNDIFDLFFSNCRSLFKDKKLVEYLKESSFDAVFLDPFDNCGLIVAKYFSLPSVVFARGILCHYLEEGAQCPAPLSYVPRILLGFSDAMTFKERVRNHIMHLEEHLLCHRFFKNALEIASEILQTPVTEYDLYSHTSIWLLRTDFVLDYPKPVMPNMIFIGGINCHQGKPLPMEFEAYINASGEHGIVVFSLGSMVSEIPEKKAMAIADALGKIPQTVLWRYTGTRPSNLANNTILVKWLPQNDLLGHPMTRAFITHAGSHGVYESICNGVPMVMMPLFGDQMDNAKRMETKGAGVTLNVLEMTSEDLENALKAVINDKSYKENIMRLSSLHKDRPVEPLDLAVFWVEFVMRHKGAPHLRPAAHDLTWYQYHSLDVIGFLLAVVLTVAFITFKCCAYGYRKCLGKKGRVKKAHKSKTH

[2] = molecular target: T2, CYP3A4 (Homo sapiens, UniProt P08684); details: cited from earlier work
T2 sequence (P08684 2-503): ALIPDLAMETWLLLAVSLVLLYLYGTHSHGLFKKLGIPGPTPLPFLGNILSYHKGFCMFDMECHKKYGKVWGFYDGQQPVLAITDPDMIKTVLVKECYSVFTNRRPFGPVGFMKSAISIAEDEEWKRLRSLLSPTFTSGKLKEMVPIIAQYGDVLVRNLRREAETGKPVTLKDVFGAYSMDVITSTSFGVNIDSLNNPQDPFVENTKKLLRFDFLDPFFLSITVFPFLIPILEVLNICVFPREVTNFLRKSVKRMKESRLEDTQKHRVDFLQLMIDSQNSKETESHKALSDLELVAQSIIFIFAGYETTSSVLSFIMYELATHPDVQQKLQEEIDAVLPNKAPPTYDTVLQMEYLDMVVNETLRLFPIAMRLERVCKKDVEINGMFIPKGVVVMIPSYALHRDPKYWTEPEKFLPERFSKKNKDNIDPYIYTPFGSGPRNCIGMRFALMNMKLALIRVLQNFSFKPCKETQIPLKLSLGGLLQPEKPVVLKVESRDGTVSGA

[3] = molecular target: T1, UGT1A9; experiment: Inhibition of UGT1A9-catalyzed mycophenolic acid glucuronidation in human liver microsomes; assay type: in vitro ADME; set-up: […]; tissue Corning Life Sciences; details: pooled human liver microsomes; 0.2 µM mycophenolic acid; without preincubation (●); read-out: IC50 UGT1A9 mycophenolic acid glucuronidation, without preincubation
From the text: (§1) 12.5 (Systat Software, Inc.; San Jose, CA, USA). […] 1.1 (Systat Software, Inc.).

[4] = molecular target: T2, CYP3A4; set-up: method as in PMID 22490230; details: human liver microsomes; cited from earlier work
[5] = molecular target: T3, UGT1A1 (Homo sapiens, UniProt P22309); experiment: biochemical; assay type: in vitro ADME
T3 construct: […]; tissue Corning Life Sciences
T3 sequence (P22309 26-533): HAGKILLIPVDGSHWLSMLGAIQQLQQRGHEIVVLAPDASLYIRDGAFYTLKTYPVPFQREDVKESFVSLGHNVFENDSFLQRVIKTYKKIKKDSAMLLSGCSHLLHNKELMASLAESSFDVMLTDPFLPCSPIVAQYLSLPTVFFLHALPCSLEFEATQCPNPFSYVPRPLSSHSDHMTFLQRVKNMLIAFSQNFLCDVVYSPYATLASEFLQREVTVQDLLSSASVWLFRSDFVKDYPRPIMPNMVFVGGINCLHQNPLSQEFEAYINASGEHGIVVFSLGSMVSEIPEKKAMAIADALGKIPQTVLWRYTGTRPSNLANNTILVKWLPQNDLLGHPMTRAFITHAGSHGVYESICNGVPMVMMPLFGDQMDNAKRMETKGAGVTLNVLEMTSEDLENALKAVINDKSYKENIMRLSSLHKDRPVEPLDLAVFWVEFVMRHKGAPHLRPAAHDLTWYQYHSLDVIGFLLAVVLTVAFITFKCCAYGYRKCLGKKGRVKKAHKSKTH
From the text: as §1

[6] = molecular target: T4, OATP1B1 (Homo sapiens, UniProt Q9Y6L6); experiment: Uptake of [3-H]estrone-3-sulfate in HEK293-OATP1B1 cells; assay type: in vitro ADME; details: HEK293-OATP1B1 cells; 0.1 μM [3-H]estrone-3-sulfate; 5 min uptake
T4 construct: host or cells: HEK293 (transient overexpression)
T4 sequence (Q9Y6L6 1-691): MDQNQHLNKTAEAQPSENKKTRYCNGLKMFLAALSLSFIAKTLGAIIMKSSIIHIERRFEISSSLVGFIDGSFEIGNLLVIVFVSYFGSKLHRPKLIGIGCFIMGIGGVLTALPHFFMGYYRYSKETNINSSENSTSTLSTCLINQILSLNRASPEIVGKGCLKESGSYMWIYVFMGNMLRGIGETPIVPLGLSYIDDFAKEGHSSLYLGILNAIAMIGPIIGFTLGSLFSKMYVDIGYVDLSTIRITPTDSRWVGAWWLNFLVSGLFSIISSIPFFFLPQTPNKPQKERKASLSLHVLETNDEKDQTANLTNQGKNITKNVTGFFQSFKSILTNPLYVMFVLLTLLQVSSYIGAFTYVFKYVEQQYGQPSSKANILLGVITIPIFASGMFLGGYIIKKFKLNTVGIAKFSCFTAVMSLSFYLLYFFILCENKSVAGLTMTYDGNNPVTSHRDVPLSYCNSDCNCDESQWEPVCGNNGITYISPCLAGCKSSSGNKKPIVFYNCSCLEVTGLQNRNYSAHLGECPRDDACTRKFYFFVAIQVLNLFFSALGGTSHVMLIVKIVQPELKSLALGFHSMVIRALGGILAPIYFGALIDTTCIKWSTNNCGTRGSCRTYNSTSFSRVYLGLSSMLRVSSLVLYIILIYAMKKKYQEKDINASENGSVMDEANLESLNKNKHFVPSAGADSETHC
Description: To examine the effects of APINACA and typical inhibitors on transporter activity, the uptake of a probe substrate into HEK293 cells overexpressing the respective solute carrier transporters was measured in the presence of APINACA (final concentrations of 0–250 μM) or typical inhibitors for 5 min. The concentrations and probe substrates were selected as follows: 0.1 μM [3-H]MPP^+ (for OCT1 and OCT2), 0.1 μM [3-H]PAH (for OAT1), 0.1 μM [3-H]ES (for OAT3 and OATP1B1), and 0.1 μM [3-H]EG (for OATP1B3).
as §1

[7] = molecular target: OATP1B3 (Homo sapiens, UniProt Q9NPD5)
Chain of OATP1B3 (Q9NPD5 whole entry): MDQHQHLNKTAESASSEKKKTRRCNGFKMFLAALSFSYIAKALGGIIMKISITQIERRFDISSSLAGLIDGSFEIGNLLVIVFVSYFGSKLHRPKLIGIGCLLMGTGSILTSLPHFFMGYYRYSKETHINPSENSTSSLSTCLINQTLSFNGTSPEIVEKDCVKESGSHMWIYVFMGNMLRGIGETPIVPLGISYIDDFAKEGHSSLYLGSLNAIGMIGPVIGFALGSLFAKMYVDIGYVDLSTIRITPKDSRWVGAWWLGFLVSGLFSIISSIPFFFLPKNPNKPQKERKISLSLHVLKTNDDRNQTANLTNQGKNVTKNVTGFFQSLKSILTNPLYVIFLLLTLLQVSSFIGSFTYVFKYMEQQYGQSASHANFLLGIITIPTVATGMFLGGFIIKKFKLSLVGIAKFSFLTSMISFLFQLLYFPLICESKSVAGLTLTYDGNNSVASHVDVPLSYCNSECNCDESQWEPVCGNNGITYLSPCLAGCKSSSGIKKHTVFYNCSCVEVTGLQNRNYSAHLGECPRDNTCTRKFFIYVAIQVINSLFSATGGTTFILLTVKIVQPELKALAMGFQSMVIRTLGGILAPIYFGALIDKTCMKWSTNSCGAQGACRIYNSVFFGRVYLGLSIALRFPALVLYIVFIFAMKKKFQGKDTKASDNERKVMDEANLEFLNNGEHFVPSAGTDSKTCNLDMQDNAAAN

C=C(C)[C@@H]1CCC(C)=C[C@H]1c1c(O)cc(CCCCC)cc1O [cannabidiol]
Ki [1]: 9.9 µM

CCc1ccc(C(=O)c2cn(CCCCCF)c3ccccc23)c2ccccc12 [EAM-2201]
kinact for CYP3A4-catalyzed midazolam 1′-hydroxylation ([2]; human liver microsomes): 0.0250 min⁻¹

C=CCc1ccc(O)c(-c2cc(CC=C)ccc2O)c1 [magnolol, reference compound]
IC50 [3]: 9.7 µM

CC[C@H]1OC(=O)[C@H](C)[C@@H](O[C@H]2C[C@@](C)(OC)[C@@H](O)[C@H](C)O2)[C@H](C)[C@@H](O[C@@H]2O[C@H](C)C[C@H](N(C)C)[C@H]2O)[C@](C)(OC)C[C@@H](C)C(=O)[C@H](C)[C@@H](O)[C@]1(C)O [clarithromycin]
inactivation efficiency (kinact/Ki) for time-dependent inhibition of CYP3A4 [4]: 46.7 M⁻¹ s⁻¹

O=C(c1cccc2ccccc12)c1cn(CCCCCF)c2ccccc12 [AM-2201]
Ki ([2]; competitive inhibition, read-out: Ki for competitive inhibition of CYP3A4-catalyzed midazolam 1′-hydroxylation): 4 µM

COC(=O)N[C@H](C(=O)N[C@@H](Cc1ccccc1)[C@@H](O)CN(Cc1ccc(-c2ccccn2)cc1)NC(=O)[C@@H](NC(=O)OC)C(C)(C)C)C(C)(C)C [atazanavir, reference compound]
IC50 [5]: 0.7 µM

CO[C@H]1/C=C/O[C@@]2(C)Oc3c(C)c(O)c4c(O)c(c(/C=N/N5CCN(C)CC5)c(O)c4c3C2=O)NC(=O)/C(C)=C\C=C\[C@H](C)[C@H](O)[C@@H](C)[C@@H](O)[C@@H](C)[C@H](OC(C)=O)[C@@H]1C [Rifampin, reference compound]
IC50 [6]: 22.8 µM | IC50 [7]: 0.99 µM

Cc1ccc(C(=O)c2cn(CCCCCF)c3ccccc23)c2ccccc12 [MAM-2201]
Ki ([2]; noncompetitive inhibition, read-out: Ki for noncompetitive inhibition of CYP3A4-catalyzed midazolam 1′-hydroxylation): 5.4 µM
